Here are results for five molecules from ChEMBL document CHEMBL1153505, “Free and bound state structures of 6-O-methyl homoerythromycins and epitope mapping of their interactions with ribosomes” (Bioorg Med Chem, 2009).

In the experiment the target is Bacterial 70S ribosome. As to the kind of experiment: Inhibition of Escherichia coli ribosome. The class given is subcellular.
By IC50 is commonly meant the concentration at which inhibition is half-maximal. Higher therefore signals lower potency. Molecule `CC[C@H]1OC(=O)[C@H](C)[C@@H](O[C@H]2C[C@@](C)(OC)[C@@H](O)[C@H](C)O2)[C@H](C)[C@@H](O[C@@H]2O[C@H](C)C[C@H](N(C)C)[C@H]2O)[C@](C)(O)C[C@@H](C)CN(C)[C@H](C)[C@@H](O)[C@]1(C)O` [AZITHROMYCIN] registered an IC50 of 300 nM.
As for `CC[C@H]1OC(=O)[C@H](C)[C@@H](O)[C@H](C)[C@@H](O[C@@H]2O[C@H](C)C[C@H](N(C)C)[C@H]2O)[C@](C)(OC)C[C@@H](C)C(=O)N[C@H](C)[C@@H](O)[C@]1(C)O`, the IC50 is over 100000 nM.
The value for `CC[C@H]1OC(=O)[C@H](C)[C@@H](O[C@H]2C[C@@](C)(OC)[C@@H](O)[C@H](C)O2)[C@H](C)[C@@H](O[C@@H]2O[C@H](C)C[C@H](N(C)C)[C@H]2O)[C@](C)(OC)C[C@@H](C)NC(=O)[C@H](C)[C@@H](O)[C@]1(C)O` was 100 nM.
`CC[C@H]1OC(=O)[C@H](C)[C@@H](O[C@H]2C[C@@](C)(OC)[C@@H](O)[C@H](C)O2)[C@H](C)[C@@H](O[C@@H]2O[C@H](C)C[C@H](N(C)C)[C@H]2O)[C@](C)(OC)C[C@@H](C)C(=O)N[C@H](C)[C@@H](O)[C@]1(C)O` yielded an IC50 of 1300 nM.
The result for `CC[C@H]1OC(=O)[C@H](C)[C@@H](O)[C@H](C)[C@@H](O[C@@H]2O[C@H](C)C[C@H](N(C)C)[C@H]2O)[C@](C)(OC)C[C@@H](C)NC(=O)[C@H](C)[C@@H](O)[C@]1(C)O` reads over 100000 nM.
